Experimental data published in patent US7560476B2, “Microbicidal composition” (Rohm and Haas Company, priority 2003, dated 2009).
Read-outs that look alike come from different tables or passages of the source. One block for each compound: values may come before it.

Tests used:
S. aureus 6538 = assay: Synergy test, microtiter plate high resolution MIC assay, M9GY medium; format: cell-based, Staphylococcus aureus
Method: (§1) Synergism was determined by an industrially accepted method described by Kull, F. C.; Eisman, P. C.; Sylwestrowicz, H. D. and Mayer, R. L., in Applied Microbiology 9:538-541 (1961), using the ratio determined by the formula: Qa/QA+Qb/QB=Synergy Index (“SI”) wherein: • QA=concentration of compound A (first component) in ppm, acting alone, which produced an end point (MIC of Compound A). • Qa=concentration of compound A in ppm, in the mixture, which produced an end point. • QB=concentration of compound B (second component) in ppm, acting alone, which produced an end point (MIC of Compound B). • Qb=concentration of compound B in ppm, in the mixture, which produced an end point.
(§2) When the sum of Qa/QA and Qb/QB is greater than one, antagonism is indicated. […] The lower the SI, the greater the synergy shown by that particular mixture. The minimum inhibitory concentration (MIC) of a microbicide is the lowest concentration tested under a specific set of conditions that prevents the growth of added microorganisms.
(§3) Synergy tests were conducted using standard microtiter plate assays with media designed for optimal growth of the test microorganism. Minimal salt medium supplemented with 0.2% glucose and 0.1% yeast extract (M9GY medium) was used for testing bacteria; Potato Dextrose Broth (PDB medium) was used for testing yeast and mold. In this method, a wide range of combinations of microbicides was tested by conducting high resolution MIC assays in the presence of various concentrations of MI. High resolution MICs were determined by adding varying amounts of microbicide to one column of a microtitre plate and doing subsequent […] dilutions using an automated liquid handling system to obtain a series of endpoints ranging from 2 ppm to 10,000 ppm active ingredient. The synergy of the combinations of the present invention was determined against two bacteria, Staphylococcus aureus (S. aureus—ATCC #6538) or Pseudomonas aeruginosa (P. aeruginosa—ATCC #15442), a yeast, Candida albicans (C. albicans—ATCC 10231), and a mold, Aspergillus niger (A. niger—ATCC 16404). […]

C. albicans 10231 = assay: Synergy test, microtiter plate high resolution MIC assay, PDB medium; format: cell-based, Candida albicans
Method: as §1, §2, §3

A. niger 16404 = assay: as above; format: cell-based, Aspergillus niger
Method: as §1, §2, §3

P. aeruginosa 9027 = assay: Synergy test, microtiter plate high resolution MIC assay, M9GY medium; format: cell-based, Pseudomonas aeruginosa
[1] = test system: microorganisms isolated from contaminated paint; assay: Testing of synergistic combinations in paint (repeated inoculation); format: cell-based; conditions: paint pH 8.5-8.8
Method: A paint formulation having a pH of 8.5-8.8 was prepared from an acrylic binder, cellulosic thickener, kaolin, additives for formulation, and water. Fifty grams of the paint samples are inoculated repeatedly with microorganisms isolated from contaminated paint, with rising concentrations of inoculum. This treatment is carried out once a week. Six days after each inoculation, the surviving microorganisms are evaluated in each sample by applying onto nutrient media. These streak-outs are assessed after an incubation time of up to seven days (at 27±2° C. and 85-95% relative atmospheric humidity). An unpreserve sample of the system to be examined is used to check the susceptibility to the growth of microorganisms. Five inoculation cycles are carried out, thus leading to a test duration of six weeks. The rating scale for evaluation microbial growth is as follows: […]

MIC (S. aureus 6538; Staphylococcus aureus, 6538, M9GY, 24 hours, read-out: QDTBMA (MIC of DTBMA acting alone)): 40 mg/L | MIC (C. albicans 10231; Candida albicans, 10231, PDB, 48 hours, read-out: QDTBMA (MIC of DTBMA acting alone)): 40 mg/L | MIC (A. niger 16404; Aspergillus niger, 16404, PDB, 72 hours, read-out: QDTBMA (MIC of DTBMA acting alone)): 1500 mg/L | MIC (P. aeruginosa 9027; Pseudomonas aeruginosa, 9027, M9GY, 72 hours, read-out: QDTBMA (MIC of DTBMA acting alone)): 1000 mg/L
Structure (SMILES): CNC(=O)c1ccccc1SSc1ccccc1C(=O)NC [DTBMA, 2,2′-dithiobis(N-methylbenzamide)]
growth rating >5 inoc. ([1]; 0.0 ppm MI, 152.0 ppm DTBMA (0:100)): 3 | growth rating >5 inoc. ([1]; 0.0 ppm MI, 228.0 ppm DTBMA (0:100)): 3

MIC (S. aureus 6538; Staphylococcus aureus, 6538, M9GY, 24 hours, read-out: QMBI (MIC of MBI acting alone)): 8 mg/L | MIC (C. albicans 10231; Candida albicans, 10231, PDB, 48 hours, read-out: QMBI (MIC of MBI acting alone)): 8 mg/L | MIC (A. niger 16404; Aspergillus niger, 16404, PDB, 72 hours, read-out: QMBI (MIC of MBI acting alone)): 60 mg/L | MIC (P. aeruginosa 9027; Pseudomonas aeruginosa, 9027, M9GY, 72 hours, read-out: QMBI (MIC of MBI acting alone)): 200 mg/L
Structure (SMILES): Cn1sc2ccccc2c1=O [MBI, 2-methylbenzisothiazolone]

Structure (SMILES): Cn1sccc1=O [MI, 2-methyl-4-isothiazolin-3-one]
MIC (S. aureus 6538; Staphylococcus aureus, 6538, 24 h, read-out: QMI (MIC of MI acting alone)): 60 mg/L | MIC (C. albicans 10231; Candida albicans, 10231, 48 h, read-out: QMI (MIC of MI acting alone)): 175 mg/L | MIC (A. niger 16404; Aspergillus niger, 16404, 72 h, read-out: QMI (MIC of MI acting alone)): 400 mg/L | MIC (P. aeruginosa 9027; Pseudomonas aeruginosa, 9027, 72 h, read-out: QMI (MIC of MI acting alone)): 25 mg/L | growth rating >5 inoc. ([1]; 150.0 ppm MI, 0.0 ppm DTBMA (100:0)): 2/1
